# Assay results: patent US9931379B2, “Oxyntomodulin analogs and methods of making and using same” (The Research Foundation for The State University of New York, priority 2015, dated 2018)
# Starred links: 1 amine or outer side, 2 acyl side, 3 side chain; linkers in the order of their positions; H or OH if unused. Positions of bridges follow the written chain, without caps; N, C: chain ends. Non-standard residues stand in square brackets, D forms with d. Residues, ends and D or L forms follow the SMILES beside them. Biphenyl(4,4'-CH2)2 = c1cc(-c2ccc(C[*:2])cc2)ccc1C[*:1]; X3 = C(=Cc1ccc(C=CC[*:2])cc1)C[*:1]
# What was measured:
# [1] = molecular target: T1, GCGR (Homo sapiens, UniProt P47871); assay: CRE-driven luciferase reporter assay, HEK293 cells overexpressing GCGR; assay type: cell-based; conditions: for GCGR activation, result in words: comparison
# T1 construct: expressed in transfected cells
# Protocol: (§1) The surviving cells (referred to as CRE-HEK293) were expanded and then transfected with a G418 selective mammalian expression plasmid encoding human GCGR or GLP-1R, followed by geneticin selection (Life technologies, Carlsbad, Calif.). Single-colony stable cell lines expressing both CRE-luciferase and GCGR/GLP-1R were then established for in vitro activity assays.
# (§2) HEK293-GCGR-CRE and HEK293-GLP-1R-CRE cells were seeded in a white 384-well plate at a density of 5,000 cells per well and cultured for 24 hours in DMEM with 10% FBS at 37° C. with 5% CO2. Cells were treated with different peptides in a dose dependent manner. After 24 hours, 10 μL of Bright-Glo reagent (Promega, Madison, Wis.) was added to each well and luminescence was determined using an Envision multilabel plate reader (PerkinElmer, Waltham, Mass.). The EC50 of each peptide was calculated using GraphPad Prism 6 software (GraphPad, San Diego, Calif.).
# [2] = molecular target: T2, GLP-1R (Homo sapiens, UniProt P43220); assay: CRE-driven luciferase reporter assay, HEK293 cells overexpressing GLP-1R; assay type: cell-based; conditions: for GLP-1R activation, result in words: comparison
# T2 construct: expressed in transfected cells
# Protocol: as §1, §2
# [3] = test system: CD1 mice; assay: Oral glucose tolerance test (OGTT); assay type: in vivo; conditions: 10 μg/mice s.c. 4 hours before oral glucose challenge
# Protocol: CD1 mice were fasted overnight and then administered with certain amount of peptides through s.c. injection (10 μg/mice).
# [4] = compared to its linear counterpart
# [5] = compared to its D,L counterpart, peptide 1
# T1 sequence (P47871 26-477): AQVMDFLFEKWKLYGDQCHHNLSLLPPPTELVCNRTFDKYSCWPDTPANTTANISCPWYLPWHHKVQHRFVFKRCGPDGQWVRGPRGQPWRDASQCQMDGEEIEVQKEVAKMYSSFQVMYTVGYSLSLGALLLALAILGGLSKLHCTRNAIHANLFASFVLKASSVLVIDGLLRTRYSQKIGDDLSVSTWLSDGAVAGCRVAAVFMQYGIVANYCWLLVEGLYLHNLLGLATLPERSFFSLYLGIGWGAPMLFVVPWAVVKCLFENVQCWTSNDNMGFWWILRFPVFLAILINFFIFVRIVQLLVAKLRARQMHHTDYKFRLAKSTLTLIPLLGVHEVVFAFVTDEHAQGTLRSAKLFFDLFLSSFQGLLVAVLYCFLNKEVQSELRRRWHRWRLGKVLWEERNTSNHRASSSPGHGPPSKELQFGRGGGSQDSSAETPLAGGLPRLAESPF
# T2 sequence (P43220 24-463): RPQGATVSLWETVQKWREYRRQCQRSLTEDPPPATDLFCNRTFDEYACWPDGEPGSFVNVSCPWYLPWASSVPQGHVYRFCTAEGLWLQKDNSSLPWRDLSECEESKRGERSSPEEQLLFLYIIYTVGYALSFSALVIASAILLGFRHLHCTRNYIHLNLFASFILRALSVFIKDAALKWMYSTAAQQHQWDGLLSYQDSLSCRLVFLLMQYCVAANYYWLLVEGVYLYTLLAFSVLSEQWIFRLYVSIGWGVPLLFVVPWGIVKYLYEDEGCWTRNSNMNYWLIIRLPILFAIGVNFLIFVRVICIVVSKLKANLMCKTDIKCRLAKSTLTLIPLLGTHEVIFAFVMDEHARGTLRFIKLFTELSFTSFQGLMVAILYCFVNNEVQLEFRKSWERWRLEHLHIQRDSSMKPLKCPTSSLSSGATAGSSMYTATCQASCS
compound,measurement,setting,value
CC[C@H](C)[C@H](NC(=O)[C@H](CC(N)=O)NC(=O)[C@H](CC(N)=O)NC(=O)[C@H](CCCNC(=N)N)NC(=O)[C@H](CC(N)=O)NC(=O)[C@H](CCCNC(=N)N)NC(=O)[C@H](CCCCN)NC(=O)[C@@H](NC(=O)[C@H](CC(N)=O)NC(=O)[C@H](CCSC)NC(=O)[C@H](CC(C)C)NC(=O)[C@H](Cc1c[nH]c2ccccc12)NC(=O)[C@@H]1CSCC=Cc2ccc(cc2)C=CCSC[C@H](NC(=O)[C@H](CCC(=O)O)NC(=O)[C@H](CC(=O)O)NC(=O)[C@H](CC(C)C)NC(=O)[C@H](Cc2ccc(O)cc2)NC(=O)[C@H](CCCCN)NC(=O)[C@H](CO)NC(=O)[C@H](Cc2ccc(O)cc2)NC(=O)[C@H](CC(=O)O)NC(=O)[C@H](CO)NC(=O)[C@@H](NC(=O)[C@H](Cc2ccccc2)NC(=O)[C@@H](NC(=O)CNC(=O)[C@H](CCC(N)=O)NC(=O)[C@@H](CO)NC(=O)[C@@H](N)Cc2c[nH]cn2)[C@@H](C)O)[C@@H](C)O)C(=O)N[C@@H](C)C(=O)N[C@@H](C)C(=O)N[C@@H](CCCCN)C(=O)N[C@@H](CCC(=O)O)C(=O)N[C@@H](Cc2ccccc2)C(=O)N[C@@H]([C@@H](C)CC)C(=O)N1)[C@@H](C)O)C(=O)N[C@@H](C)C(N)=O [compound 12] (H-H[dS]QGTFTSDYSKYLDECAAKEFICWLMNTKRNRNNIA-NH2; linker 17-24 via X3),EC50,"[1]; Table 2, mean and standard deviation, assay performed three times, read-out: Agonist activity (nM) GCGR",1 ± 0.12 nM
same,EC50,"[2]; Table 2, mean and standard deviation, assay performed three times, read-out: Agonist activity (nM) GLP-1R",0.45 ± 0.03 nM
CC[C@H](C)[C@H](NC(=O)[C@H](CC(N)=O)NC(=O)[C@H](CC(N)=O)NC(=O)[C@H](CCCNC(=N)N)NC(=O)[C@H](CC(N)=O)NC(=O)[C@H](CCCNC(=N)N)NC(=O)[C@H](CCCCN)NC(=O)[C@@H](NC(=O)[C@H](CC(N)=O)NC(=O)[C@H](CCSC)NC(=O)[C@H](CC(C)C)NC(=O)[C@H](Cc1c[nH]c2ccccc12)NC(=O)[C@H](CS)NC(=O)[C@@H](NC(=O)[C@H](Cc1ccccc1)NC(=O)[C@H](CC(=O)O)NC(=O)[C@H](CCC(N)=O)NC(=O)[C@H](C)NC(=O)[C@H](CCCNC(=N)N)NC(=O)[C@@H](CS)NC(=O)[C@H](CO)NC(=O)[C@H](CC(=O)O)NC(=O)[C@H](CC(C)C)NC(=O)[C@H](Cc1ccc(O)cc1)NC(=O)[C@H](CCCCN)NC(=O)[C@H](CO)NC(=O)[C@H](Cc1ccc(O)cc1)NC(=O)[C@H](CC(=O)O)NC(=O)[C@H](CO)NC(=O)[C@@H](NC(=O)[C@H](Cc1ccccc1)NC(=O)[C@@H](NC(=O)CNC(=O)[C@H](CCC(N)=O)NC(=O)[C@@H](CO)NC(=O)[C@@H](N)Cc1c[nH]cn1)[C@@H](C)O)[C@@H](C)O)C(C)C)[C@@H](C)O)C(=O)N[C@@H](C)C(N)=O [peptide 1] (H-H[dS]QGTFTSDYSKYLDS[dC]RAQDFVCWLMNTKRNRNNIA-NH2),"GCGR activation, result in words",[1],more potently than peptide 2
same,"GLP-1R activation, result in words",[2],reduced potency
"CC[C@H](C)[C@H](NC(=O)[C@H](CC(N)=O)NC(=O)[C@H](CC(N)=O)NC(=O)[C@H](CCCNC(=N)N)NC(=O)[C@H](CC(N)=O)NC(=O)[C@H](CCCNC(=N)N)NC(=O)[C@H](CCCCN)NC(=O)[C@@H](NC(=O)[C@H](CC(N)=O)NC(=O)[C@H](CCSC)NC(=O)[C@H](CC(C)C)NC(=O)[C@H](Cc1c[nH]c2ccccc12)NC(=O)[C@@H]1CSCc2ccc(cc2)-c2ccc(cc2)CSC[C@@H](NC(=O)[C@H](CO)NC(=O)[C@H](CC(=O)O)NC(=O)[C@H](CC(C)C)NC(=O)[C@H](Cc2ccc(O)cc2)NC(=O)[C@H](CCCCN)NC(=O)[C@H](CO)NC(=O)[C@H](Cc2ccc(O)cc2)NC(=O)[C@H](CC(=O)O)NC(=O)[C@H](CO)NC(=O)[C@@H](NC(=O)[C@H](Cc2ccccc2)NC(=O)[C@@H](NC(=O)CNC(=O)[C@H](CCC(N)=O)NC(=O)[C@@H](CO)NC(=O)[C@@H](N)Cc2c[nH]cn2)[C@@H](C)O)[C@@H](C)O)C(=O)N[C@@H](CCCNC(=N)N)C(=O)N[C@@H](C)C(=O)N[C@@H](CCC(N)=O)C(=O)N[C@@H](CC(=O)O)C(=O)N[C@@H](Cc2ccccc2)C(=O)N[C@@H](C(C)C)C(=O)N1)[C@@H](C)O)C(=O)N[C@@H](C)C(N)=O [peptide 3] (H-H[dS]QGTFTSDYSKYLDS[dC]RAQDFVCWLMNTKRNRNNIA-NH2; linker 17-24 via Biphenyl(4,4'-CH2)2)",increase in activity toward GCGR on crosslinking,[1]; [4],16 fold
same,increase in activity toward GLP-1R on crosslinking,[2]; [4],2 fold
CC[C@H](C)[C@H](NC(=O)[C@H](CC(N)=O)NC(=O)[C@H](CC(N)=O)NC(=O)[C@H](CCCNC(=N)N)NC(=O)[C@H](CC(N)=O)NC(=O)[C@H](CCCNC(=N)N)NC(=O)[C@H](CCCCN)NC(=O)[C@@H](NC(=O)[C@H](CC(N)=O)NC(=O)[C@H](CCSC)NC(=O)[C@H](CC(C)C)NC(=O)[C@H](Cc1c[nH]c2ccccc12)NC(=O)[C@H](CS)NC(=O)[C@@H](NC(=O)[C@H](Cc1ccccc1)NC(=O)[C@H](CC(=O)O)NC(=O)[C@H](CCC(N)=O)NC(=O)[C@H](C)NC(=O)[C@H](CCCNC(=N)N)NC(=O)[C@H](CS)NC(=O)[C@H](CO)NC(=O)[C@H](CC(=O)O)NC(=O)[C@H](CC(C)C)NC(=O)[C@H](Cc1ccc(O)cc1)NC(=O)[C@H](CCCCN)NC(=O)[C@H](CO)NC(=O)[C@H](Cc1ccc(O)cc1)NC(=O)[C@H](CC(=O)O)NC(=O)[C@H](CO)NC(=O)[C@@H](NC(=O)[C@H](Cc1ccccc1)NC(=O)[C@@H](NC(=O)CNC(=O)[C@H](CCC(N)=O)NC(=O)[C@@H](CO)NC(=O)[C@@H](N)Cc1c[nH]cn1)[C@@H](C)O)[C@@H](C)O)C(C)C)[C@@H](C)O)C(=O)N[C@@H](C)C(N)=O [peptide 4] (H-H[dS]QGTFTSDYSKYLDSCRAQDFVCWLMNTKRNRNNIA-NH2),increase in GCGR activity,[1]; [5],roughly 2 fold
same,increase in GLP-1R activity,[2]; [5],roughly 2 fold
CC[C@H](C)[C@H](NC(=O)[C@H](CC(N)=O)NC(=O)[C@H](CC(N)=O)NC(=O)[C@H](CCCNC(=N)N)NC(=O)[C@H](CC(N)=O)NC(=O)[C@H](CCCNC(=N)N)NC(=O)[C@H](CCCCN)NC(=O)[C@@H](NC(=O)[C@H](CC(N)=O)NC(=O)[C@H](CCSC)NC(=O)[C@H](CC(C)C)NC(=O)[C@H](Cc1c[nH]c2ccccc12)NC(=O)[C@H](CS)NC(=O)[C@@H](NC(=O)[C@H](Cc1ccccc1)NC(=O)[C@H](CC(=O)O)NC(=O)[C@H](CCC(N)=O)NC(=O)[C@H](C)NC(=O)[C@H](CCCNC(=N)N)NC(=O)[C@H](CS)NC(=O)[C@H](CCC(=O)O)NC(=O)[C@H](CC(=O)O)NC(=O)[C@H](CC(C)C)NC(=O)[C@H](Cc1ccc(O)cc1)NC(=O)[C@H](CCCCN)NC(=O)[C@H](CO)NC(=O)[C@H](Cc1ccc(O)cc1)NC(=O)[C@H](CC(=O)O)NC(=O)[C@H](CO)NC(=O)[C@@H](NC(=O)[C@H](Cc1ccccc1)NC(=O)[C@@H](NC(=O)CNC(=O)[C@H](CCC(N)=O)NC(=O)[C@@H](CO)NC(=O)[C@@H](N)Cc1c[nH]cn1)[C@@H](C)O)[C@@H](C)O)C(C)C)[C@@H](C)O)C(=O)N[C@@H](C)C(N)=O [peptide 5] (H-H[dS]QGTFTSDYSKYLDECRAQDFVCWLMNTKRNRNNIA-NH2),"GCGR activation, result in words",[1],modest enhancement
same,"GLP-1R activation, result in words",[2],modest enhancement
CC[C@H](C)[C@H](NC(=O)[C@H](CC(N)=O)NC(=O)[C@H](CC(N)=O)NC(=O)[C@H](CCCNC(=N)N)NC(=O)[C@H](CC(N)=O)NC(=O)[C@H](CCCNC(=N)N)NC(=O)[C@H](CCCCN)NC(=O)[C@@H](NC(=O)[C@H](CC(N)=O)NC(=O)[C@H](CCSC)NC(=O)[C@H](CC(C)C)NC(=O)[C@H](Cc1c[nH]c2ccccc12)NC(=O)[C@H](CS)NC(=O)[C@@H](NC(=O)[C@H](Cc1ccccc1)NC(=O)[C@H](CC(C)C)NC(=O)[C@H](CCCNC(=N)N)NC(=O)[C@@H](NC(=O)[C@H](C)NC(=O)[C@H](CS)NC(=O)[C@H](CCC(=O)O)NC(=O)[C@H](CC(=O)O)NC(=O)[C@H](CC(C)C)NC(=O)[C@H](Cc1ccc(O)cc1)NC(=O)[C@H](CCCCN)NC(=O)[C@H](CO)NC(=O)[C@H](Cc1ccc(O)cc1)NC(=O)[C@H](CC(=O)O)NC(=O)[C@H](CO)NC(=O)[C@@H](NC(=O)[C@H](Cc1ccccc1)NC(=O)[C@@H](NC(=O)CNC(=O)[C@H](CCC(N)=O)NC(=O)[C@@H](CO)NC(=O)[C@@H](N)Cc1c[nH]cn1)[C@@H](C)O)[C@@H](C)O)C(C)C)[C@@H](C)CC)[C@@H](C)O)C(=O)N[C@@H](C)C(N)=O [peptide 8] (H-H[dS]QGTFTSDYSKYLDECAVRLFICWLMNTKRNRNNIA-NH2),"GCGR activation, result in words",[1],less potent
"exendin-4 [Ex-4, reference compound]",decrease of the area under curve (AUC) of blood glucose,[3],30%
